Data: patent US20230332232A1, “COMPOSITIONS AND METHODS FOR DIAGNOSING AND TREATING A DYSTONIA” (Duke University, priority 2020, published 2023)

Test system: DYT1 knockin (Tor1a^delGAG/+) murine embryonic fibroblasts (MEFs)
Test: microRNA-seq of EVs from DYT1 MEFs treated with drug, compared with non-treated DYT1 MEFs
Format: cell-based, mouse
Conditions: for Abs Z Score Sum (Geno + RTV) / RTV Direction Opposite dE?: EVs of DYT1 (Het) MEFs
Method: In addition to proteomic analysis, total RNA-seq and microRNA-seq was performed on RNA isolated in parallel from the EV samples of Cohort 2. As with the proteomic analysis, one biological replicate was prepared from 3 distinct biological clonal cell lines for each genotype. Here, EVs were isolated from conditioned cell culture media by 18 hour ultracentrifugation at 100,000 g. RNA was extracted using the Qiagen miRNeasy Micro Kit (Cat. No. 217084) according to the manufacturer's protocol. Two RNA fractions were extracted from each sample, one enriched in coding and non-coding RNA species>200 nt (“Total RNA” fraction) and one enriched for small RNAs<200 nt (“miRNA” fraction). RNA samples were then submitted to the Duke Sequencing and Genomic Technologies shared resource for further quality control and sequencing. Samples were assessed for concentration and integrity by Qubit and Fragment Analyzer. The miRNA fractions were 4.16 ng/μL-47.57 ng/μL and total RNA fractions were 3.8 ng/μL-43.6 ng/μL. The small RNA library was prepared using the QIAseq miRNA Library Kit (Cat No./ID: 331505) and sequenced on the Illumina NextSeq 500 High-Output platform with 75 bp single-reads. The total RNA library was prepared using the Illumina TruSeq Stranded Total RNA-seq Kit with Ribozero Gold ribosomal RNA reduction and sequenced on the Illumina NovaSeq 6000 S1 platform with 100 bp paired-end reads. Sequencer lane pooling and read depth are attached in the Excel data summary (See “RNA QC” Tab). Data processing and analysis were performed in collaboration with the Duke Genomic Analysis and Bioinformatics shared resource. RNA-seq data was processed using the TrimGalore toolkit (http://www.bioinformatics.babraham.ac.uk/projects/trim_galore), which employs Cutadapt(Martin M. (2011) EMBnet.journal. 17(1):10-12) to trim low quality bases and Illumina sequencing adapters from the 3' end of the reads. Only reads that were 20 nt or longer after trimming were kept for further analysis. Reads were mapped to the mouse genome and transcriptome ([…], et al. (2012) Nucleic Acids Res. 40(Database issue):[…]-97) using the STAR RNA-seq alignment tool (Dobin A, et al. (2013). Bioinformatics. 29(1):15-21). If the reads mapped to a single genomic location, then they were kept for subsequent analysis. Gene counts were compiled using the HTSeq tool (http://www-huber.embl.de/users/anders/HTSeq/). Only genes that had at least 10 reads in any given library were used in subsequent analysis. Normalization and differential expression was carried out using the DESeq26 Bioconductor (Huber W, et al. (2015) Nat Methods. 12(2):115-121) package with the R statistical programming environment (www.r-project.org). […] 694 miRNAs were initially examined with respect to QC, genotype, RTV effects, and ISRIB effects. This subset was the “Full miRNA” subset. FIG. 9A and FIG. 9B show the RTV effect on EV composition in DYT1 cells compared to WT cells for 279 miRNAs, respectively. […] Beginning with the 694 miRNAs in the “Full miRNA” subset, more than 60 molecules were detected in either WT cells or DYT1 cells (WT or Het UMI>60). […] The candidate miRNAs were ranked by the sum of genotype-dependent absolute Z-scores and RTV-induced absolute Z-scores (Abs Z Score Sum (Geno+RTV)). This subset was the “miRNA-Ritonavir Therapeutic Efficacy” subset and contained 201 miRNAs.

[1] = sum of genotype and RTV absolute Z-scores

## CC(C)c1nc(CN(C)C(=O)N[C@H](C(=O)N[C@@H](Cc2ccccc2)C[C@H](O)[C@H](Cc2ccccc2)NC(=O)OCc2cncs2)C(C)C)cs1 [RTV, Ritonavir]
mmu-miR-183-5p
  RTVvHet Z Score: 3.42
  Abs Z Score Sum (Geno + RTV): 5.55
  RTV Direction Opposite dE?: yes
mmu-miR-185-5p
  RTVvHet Z Score: 0.53
mmu-miR-186-5p
  RTVvHet Z Score: 0.33
mmu-miR-187-3p
  RTVvHet Z Score: 1.13
  Abs Z Score Sum (Geno + RTV): 3.96
  RTV Direction Opposite dE?: yes
mmu-miR-188-5p
  RTVvHet Z Score: 0.34
mmu-miR-190b-5p
  RTVvHet Z Score: 0.28
mmu-miR-191-5p
  RTVvHet Z Score: 0.28
mmu-miR-192-5p
  RTVvHet Z Score: 0.54
  Abs Z Score Sum (Geno + RTV): 3.38
  RTV Direction Opposite dE?: yes
mmu-miR-194-5p
  RTVvHet Z Score: 0.46
mmu-miR-199a-3p
  RTVvHet Z Score: 1.07
  RTV Direction Opposite dE?: yes
mmu-miR-199b-3p
  RTVvHet Z Score: 1.17
  RTV Direction Opposite dE?: yes
mmu-miR-206-3p
  RTVvHet Z Score: 0.20
mmu-miR-214-5p
  RTVvHet Z Score: 1.09
mmu-miR-219a-5p
  RTVvHet Z Score: 1.08
mmu-miR-223-3p
  RTVvHet Z Score: −0.59
mmu-miR-224-5p
  RTVvHet Z Score: 0.28
mmu-miR-296-3p
  RTVvHet Z Score: 3.08
  Abs Z Score Sum (Geno + RTV): 5.10
  RTV Direction Opposite dE?: yes
mmu-miR-298-5p
  RTVvHet Z Score: 3.59
  Abs Z Score Sum (Geno + RTV): 6.72
  RTV Direction Opposite dE?: yes
mmu-miR-299a-3p
  RTVvHet Z Score: 1.31
mmu-miR-301a-3p
  RTVvHet Z Score: 1.45
mmu-miR-301b-3p
  RTVvHet Z Score: 1.05
mmu-miR-320-3p
  RTVvHet Z Score: 0.76
mmu-miR-322-5p
  RTVvHet Z Score: 0.75
mmu-miR-324-3p
  RTVvHet Z Score: 0.82
mmu-miR-335-Sp
  RTVvHet Z Score: 1.02
mmu-miR-340-5p
  RTVvHet Z Score: 1.09
mmu-miR-344-3p
  RTVvHet Z Score: 1.30
  Abs Z Score Sum (Geno + RTV): 4.24
  RTV Direction Opposite dE?: yes
mmu-miR-350-3p
  RTVvHet Z Score: 0.41
mmu-miR-361-5p
  RTVvHet Z Score: 0.71
mmu-miR-362-3p
  RTVvHet Z Score: 1.05
  RTV Direction Opposite dE?: yes
mmu-miR-362-5p
  RTVvHet Z Score: 0.83
  Abs Z Score Sum (Geno + RTV): 3.62
  RTV Direction Opposite dE?: yes
mmu-miR-378a-3p
  RTVvHet Z Score: 1.25
mmu-miR-450a-5p
  RTVvHet Z Score: 0.39
mmu-miR-450b-3p
  RTVvHet Z Score: 0.31
mmu-miR-451a
  RTVvHet Z Score: −1.37
mmu-miR-483-5p
  RTVvHet Z Score: 0.01
mmu-miR-500-3p
  RTVvHet Z Score: 1.09
mmu-miR-503-3p
  RTVvHet Z Score: 0.99
mmu-miR-532-5p
  RTVvHet Z Score: 0.52
  Abs Z Score Sum (Geno + RTV): 3.77
  RTV Direction Opposite dE?: yes
mmu-miR-542-3p
  RTVvHet Z Score: 0.81
mmu-miR-542-5p
  RTVvHet Z Score: 2.00
  Abs Z Score Sum (Geno + RTV): 7.20
  RTV Direction Opposite dE?: yes
mmu-miR-582-3p
  RTVvHet Z Score: 0.20
mmu-miR-652-3p
  RTVvHet Z Score: 0.93
mmu-miR-671-5p
  RTVvHet Z Score: 1.76
  RTV Direction Opposite dE?: yes
mmu-miR-700-3p
  RTVvHet Z Score: 0.49
mmu-miR-708-5p
  RTVvHet Z Score: 1.28
mmu-miR-872-5p
  RTVvHet Z Score: 0.68
mmu-miR-1291
  RTVvHet Z Score: 1.91
  Abs Z Score Sum (Geno + RTV): 3.34
  RTV Direction Opposite dE?: yes
mmu-miR-1843a-5p
  RTVvHet Z Score: 0.28
mmu-miR-3102-3p
  RTVvHet Z Score: 0.95
mmu-miR-3535
  RTVvHet Z Score: 1.43
  Abs Z Score Sum (Geno + RTV): 3.67
  RTV Direction Opposite dE?: yes
mmu-miR-5121
  RTVvHet Z Score: 2.65
  Abs Z Score Sum (Geno + RTV): 4.47
  RTV Direction Opposite dE?: yes
mmu-miR-30h-5p
  Abs Z Score Sum (Geno + RTV): 3.25
  RTV Direction Opposite dE?: yes
mmu-miR-30d-5p
  RTVvHet Z Score: 0.70
mmu-miR-344d-3p
  RTVvHet Z Score: 1.98
  Abs Z Score Sum (Geno + RTV): 4.51
  RTV Direction Opposite dE?: yes
[1]
  mmu-miR-147-5p: Abs Z Score Sum (Geno + RTV): 0.20
  mmu-miR-181a-1-3p: Abs Z Score Sum (Geno + RTV): 0.18
  mmu-miR-331-5p: Abs Z Score Sum (Geno + RTV): 0.00
  mmu-miR-668-3p: Abs Z Score Sum (Geno + RTV): 0.42
  mmu-miR-1930-5p: Abs Z Score Sum (Geno + RTV): 0.38
  mmu-miR-1943-5p: Abs Z Score Sum (Geno + RTV): 0.23
  mmu-miR-1955-5p: Abs Z Score Sum (Geno + RTV): 0.00
  mmu-miR-3072-5p: Abs Z Score Sum (Geno + RTV): 0.38
  mmu-miR-3076-3p: Abs Z Score Sum (Geno + RTV): 0.00
  mmu-miR-3088-3p: Abs Z Score Sum (Geno + RTV): 0.18
  mmu-miR-6936-3p: Abs Z Score Sum (Geno + RTV): 0.38
  mmu-miR-7224-3p: Abs Z Score Sum (Geno + RTV): 0.22
  mmu-miR-467d-3p: Abs Z Score Sum (Geno + RTV): 0.32
